Data: PMC4815073, “Targeting of tubulin polymerization and induction of mitotic blockage by Methyl 2-(5-fluoro-2-hydroxyphenyl)-1H-benzo[d]imidazole-5-carboxylate (MBIC) in human cervical cancer HeLa cell” (Journal of Experimental & Clinical Cancer Research : CR, 2016)

Assays:
WRL-68 cells = experiment: MTT cytotoxicity assay, WRL-68 normal liver cells; assay type: cell-based, human
Excerpt: (§1) The human cervical cancer cell-line, HeLa (CCL-2.2; ATCC, Manassas, VA), HCT-116 (CCL-247; ATCC, Manassas, VA), A549 (CCL-185; ATCC, Manassas, VA), HepG-2 (HB-8065; ATCC, Manassas, VA) and WRL-68 (CL-48; ATCC, Manassas, VA), were obtained from American Type Culture Collection (ATCC). HeLa, A549, HepG2 and WRL68 cells were maintained in Dulbecco’s Modified Eagle Medium (DMEM, Life Technologies, Inc, Rockville, MD). HCT-116 was obtained in McCoy’s 5a Medium Modified (Life Technologies, Inc, Rockville, MD) supplemented with 10 % fetal bovine serum and 1 % penicillin/streptomycin. Cells were incubated at 37 °C in a humidified cell culture 5 % CO2 incubator. Cells were passaged until reaching 70-80-% confluency for experimental purposes.
(§2) Cytotoxicity of MBIC was estimated by MTT assay. Briefly, 1 × 10^4 cells/well were seeded in a 96-well plate and incubated at 37 °C in 5 % CO2. After 24 h, cells were treated with different concentrations (0.02, 0.04, 0.1, 0.2, 0.4, 0.8, 1.5, 3, 6, 12, 25, 50 μM) of MBIC. 0.01 % DMSO was used as vehicle control. Cells were incubated for 24 and 48 h at 37 °C. Subsequently, 50 μl/well of 3-(4,5-dimethylthiazol-2-yl)-2,5-diphenyltetrazolium bromide (MTT, 2 mg/ml) was added and incubated for 2 h. After the incubation, the media was discarded and 100 μl DMSO was replaced into each well to dissolve the formazan crystal. The colorimetric assay was quantified at 570 nm wavelength using Chameleon V microplate reader (Hidex, Turku, Finland). The anti-proliferation activity of MBIC was expressed as an IC50 value. The percentage of cell viability was calculated as described previously.

HCT-116 cells = experiment: MTT cytotoxicity assay, HCT-116; assay type: cell-based, human; details: for IC50: MTT
Excerpt: as §1, §2

HeLa cells [1] = experiment: Drug combination assay (MTT, Chou-Talalay, CampuSyn); assay type: cell-based; details: Homo sapiens, 24 h, drug alone, read-out: (Dm)IC50 Drug 1 (conventional drug alone)
Method: In order to discover the synergistic effects of MBIC with conventional drugs briefly, cells were seeded in 1 × 10^4 cells/well and were incubated at 37 °C overnight. […] Also, the MBIC, combined with each of the selected conventional drugs in a 1:1 ratio, were diluted in concentration from 50 μM to 0.1 μM. Cell viability assay (MTT assay) was performed 24 h post-treatment and absorbance were measured in a microplate reader to find out the IC50 for each conventional drug alone and in combination with MBIC on HeLa cells. For this analysis, we used the commercial software package CampuSyn (Biosoft, Cambridge, United Kingdom; Ref.9). […] Furthermore, the software produced an automated isobologram and fraction affected-combination index (Fa-CI) plot.

A549 cells = experiment: MTT cytotoxicity assay, A549; assay type: cell-based, human; details: for IC50: MTT
Excerpt: as §1, §2

HepG-2 cells = experiment: MTT cytotoxicity assay, HepG-2; assay type: cell-based, human; details: for IC50: MTT
Excerpt: as §1, §2

HeLa cells [2] = experiment: MTT cytotoxicity assay, HeLa; assay type: cell-based, human; details: for IC50: HeLa, MTT; for SI (Selectivity Index): IC50 WRL-68 / IC50 HeLa
Excerpt: as §1, §2

tubulin = target: T1, tubulin (Sus scrofa, UniProt P02550+P02554); experiment: Tubulin polymerization assay; assay type: biochemical; details: 10 μM drug, 3 mg/ml tubulin, 37 °C, 340 nm; untreated 12 mOD/min
T1 construct: purchased Cytoskeleton BK011P
T1 sequence (P02550 whole entry): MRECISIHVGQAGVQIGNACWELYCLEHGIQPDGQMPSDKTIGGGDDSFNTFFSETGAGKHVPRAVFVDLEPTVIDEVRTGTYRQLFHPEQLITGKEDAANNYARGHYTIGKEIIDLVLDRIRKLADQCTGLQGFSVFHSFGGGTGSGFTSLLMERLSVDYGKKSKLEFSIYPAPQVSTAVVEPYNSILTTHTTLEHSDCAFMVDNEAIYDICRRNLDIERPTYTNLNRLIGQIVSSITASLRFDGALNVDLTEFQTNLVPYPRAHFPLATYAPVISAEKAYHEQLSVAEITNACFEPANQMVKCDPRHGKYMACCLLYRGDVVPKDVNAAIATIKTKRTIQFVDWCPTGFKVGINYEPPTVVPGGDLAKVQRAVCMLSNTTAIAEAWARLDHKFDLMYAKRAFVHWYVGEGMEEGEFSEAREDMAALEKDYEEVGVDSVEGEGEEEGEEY
T1 sequence (P02554 whole entry): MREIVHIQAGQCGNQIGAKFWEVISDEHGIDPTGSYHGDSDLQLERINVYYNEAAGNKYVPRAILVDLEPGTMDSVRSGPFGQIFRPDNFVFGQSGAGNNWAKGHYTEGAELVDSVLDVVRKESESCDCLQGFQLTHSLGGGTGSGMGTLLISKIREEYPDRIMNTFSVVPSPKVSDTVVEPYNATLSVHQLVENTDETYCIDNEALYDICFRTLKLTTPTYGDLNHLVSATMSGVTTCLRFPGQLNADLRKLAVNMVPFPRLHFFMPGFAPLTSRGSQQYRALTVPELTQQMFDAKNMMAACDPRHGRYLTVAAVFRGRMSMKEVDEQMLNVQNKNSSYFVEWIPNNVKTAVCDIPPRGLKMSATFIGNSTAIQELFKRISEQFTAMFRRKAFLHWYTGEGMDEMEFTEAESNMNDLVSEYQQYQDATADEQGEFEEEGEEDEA
Method: To investigate the effect of MBIC on tubulin polymerization, a fluorescence-based tubulin polymerization assay kit (Cytoskeleton-Cat. # BK011P) was used according to the manufacturer’s protocol. Briefly, 200 μl of pure tubulin protein was re-suspended in 420 μl of ice cold Tubulin Polymerization Buffer (TPB) to give a final concentration of 3 mg/ml tubulin, supplemented with 80 mM PIPES, 2 mM MgCl2, 0.5 mM EGTA, 1 mM GTP, 20 % (v/v) glycerol. 100 μl of tubulin reaction mixture were added to each well in a 96-well plate containing the selected concentration of MBIC (10 μM). […] Samples were mixed well and the tubulin assembly was monitored by an increase in fluorescence emission at 340 nm in kinetic mode for 120 min at 37 °C using a plate reader (Infinite® 200 PRO—Tecan plate reader, USA).

[3] = test system: HeLa cells expressing EGFP-α-tubulin, EGFP-CENP-A and histone H2B-mCherry; experiment: Live-cell imaging of mitotic spindle; assay type: cell-based, human; details: MBIC 10 μM, nocodazole 2 μM; imaged at 15 min intervals
Method: HeLa cells expressing EGFP-α-tubulin, EGFP-CENP-A and histone H2B-mCherry were grown in glass chambers (Thermo Scientific, USA). Thirty minutes before imaging, the medium was changed to pre-warmed Leibovitz’s L-15 medium (Life Technologies) supplemented with 20 % fetal bovine serum and 20 mM HEPES, pH 7.0. Recordings were made in a temperature-controlled incubator at 37 °C. Images were collected with an Olympus IX-71 inverted microscope (Olympus) controlled by DeltaVision softWoRx (Applied Precision) using a 20x 0.75 NA UPlan SApochromat objective lens (Olympus). Z-series of six sections in 3 μm increments were captured every 15 min. Image stacks were projected.

[4] = Homo sapiens, HCT-116, 24 hours
[5] = Homo sapiens, HCT-116, 48 hours
[6] = IC50 WRL-68 / IC50 HCT-116, 24 hours
[7] = IC50 WRL-68 / IC50 HCT-116, 48 hours
[8] = IC50 WRL-68 / IC50 A549, 24 hours
[9] = IC50 WRL-68 / IC50 A549, 48 hours
[10] = Homo sapiens, HepG2, HepG-2, 24 hours
[11] = Homo sapiens, HepG2, HepG-2, 48 hours
[12] = IC50 WRL-68 / IC50 HepG-2, 24 hours
[13] = IC50 WRL-68 / IC50 HepG-2, 48 hours

IC50 (HeLa cells [1]) | Structure (SMILES) | IC50 (WRL-68 cells; Homo sapiens, WRL68, 24 hours) | IC50 (WRL-68 cells; Homo sapiens, WRL68, 48 hours) | IC50 (HCT-116 cells; [4]) | IC50 (HCT-116 cells; [5]) | SI (Selectivity Index) (HCT-116 cells; [6]) | SI (Selectivity Index) (HCT-116 cells; [7]) | IC50 (A549 cells; Homo sapiens, A549, 24 hours) | IC50 (A549 cells; Homo sapiens, A549, 48 hours) | SI (Selectivity Index) (A549 cells; [8]) | SI (Selectivity Index) (A549 cells; [9]) | IC50 (HepG-2 cells; [10]) | IC50 (HepG-2 cells; [11]) | SI (Selectivity Index) (HepG-2 cells; [12]) | SI (Selectivity Index) (HepG-2 cells; [13]) | IC50 (HeLa cells [2]; Homo sapiens, 24 hours) | IC50 (HeLa cells [2]; Homo sapiens, 48 hours) | SI (Selectivity Index) (HeLa cells [2]; 24 hours) | SI (Selectivity Index) (HeLa cells [2]; 48 hours) | Tubulin polymerization maximal velocity (Vmax) (tubulin) | also measured
0.46 ± 0.7 µM | COc1cccc2c1C(=O)c1c(O)c3c(c(O)c1C2=O)C[C@@](O)(C(=O)CO)C[C@@H]3O[C@H]1C[C@H](N)[C@H](O)[C@H](C)O1 [Doxorubicin] | 3.56 ± 0.9 µM | 1.68 ± 0.09 µM | 0.91 ± 0.2 µM | 0.47 ± 0.3 µM | 3.91 | 3.57 | 0.35 ± 0.07 µM | 0.09 ± 0.01 µM | 10.17 | 18.66 | 8.04 ± 0.8 µM | 3.94 ± 0.07 µM | 0.44 | 0.42 | 0.46 ± 0.04 µM | 0.29 ± 0.04 µM | 7.73 | 5.79 | – | –
1.02 ± 0.6 µM | CC(=O)O[C@H]1C(=O)[C@@]2(C)[C@H]([C@H](OC(=O)c3ccccc3)[C@]3(O)C[C@H](OC(=O)[C@H](O)[C@@H](NC(=O)c4ccccc4)c4ccccc4)C(C)=C1C3(C)C)[C@]1(OC(C)=O)CO[C@@H]1C[C@@H]2O [Paclitaxel] | 6.71 ± 0.2 µM | 3.41 ± 0.8 µM | 3.09 ± 0.5 µM | 1.09 ± 0.4 µM | 2.17 | 3.12 | 2.83 ± 0.11 µM | 1.23 ± 0.09 µM | 2.37 | 2.77 | 2.81 ± 0.72 µM | 1.03 ± 0.07 µM | 2.38 | 3.31 | 1.02 ± 0.01 µM | 0.57 ± 0.03 µM | 6.57 | 5.98 | 33 mOD/min | –
– | N.N.[Cl][Pt][Cl] [Cisplatin] | – | – | – | – | 2.57 | 2.56 | – | – | 0.54 | 0.54 | – | – | 1.80 | 1.78 | – | – | 1.23 | 1.17 | – | IC50 (WRL-68 cells; 24 hours): 18.6 ± 1.4 µM; IC50 (WRL-68 cells; 48 hours): 10.6 ± 0.7 µM; IC50 (HCT-116 cells; HCT-116, 24 hours): 7.22 ± 0.5 µM; IC50 (HCT-116 cells; HCT-116, 48 hours): 4.12 ± 0.6 µM; IC50 (A549 cells; A549, 24 hours): 34 ± 0.9 µM; IC50 (A549 cells; A549, 48 hours): 19.5 ± 1.4 µM; IC50 (HepG-2 cells; HepG-2, 24 hours): 10.3 ± 0.5 µM; IC50 (HepG-2 cells; HepG-2, 48 hours): 5.93 ± 0.2 µM; IC50 (HeLa cells [2]; 24 hours): 15.07 ± 0.03 µM; IC50 (HeLa cells [2]; 48 hours): 9.02 ± 0.02 µM

Structure (SMILES) | IC50 (HeLa cells [1]) | IC50 (WRL-68 cells; Homo sapiens, WRL68, 24 hours) | IC50 (WRL-68 cells; Homo sapiens, WRL68, 48 hours) | IC50 (HCT-116 cells; [4]) | IC50 (HCT-116 cells; [5]) | SI (Selectivity Index) (HCT-116 cells; [6]) | SI (Selectivity Index) (HCT-116 cells; [7]) | IC50 (A549 cells; Homo sapiens, A549, 24 hours) | IC50 (A549 cells; Homo sapiens, A549, 48 hours) | SI (Selectivity Index) (A549 cells; [8]) | SI (Selectivity Index) (A549 cells; [9]) | IC50 (HepG-2 cells; [10]) | IC50 (HepG-2 cells; [11]) | SI (Selectivity Index) (HepG-2 cells; [12]) | SI (Selectivity Index) (HepG-2 cells; [13]) | IC50 (HeLa cells [2]; Homo sapiens, 24 hours) | IC50 (HeLa cells [2]; Homo sapiens, 48 hours) | SI (Selectivity Index) (HeLa cells [2]; 24 hours) | SI (Selectivity Index) (HeLa cells [2]; 48 hours) | Tubulin polymerization maximal velocity (Vmax) (tubulin) | also measured
COC(=O)Nc1nc2ccc(C(=O)c3cccs3)cc2[nH]1 [Nocodazole] | 3.08 ± 0.5 µM | 12.2 ± 0.9 µM | 7.56 ± 0.3 µM | 3.81 ± 0.6 µM | 1.81 ± 0.3 µM | 3.20 | 4.17 | 12.2 ± 0.2 µM | 5.09 ± 0.5 µM | 1.00 | 1.48 | 10.7 ± 0.5 µM | 5.08 ± 0.3 µM | 1.14 | 1.48 | 3.08 ± 0.02 µM | 2.22 ± 0.04 µM | 3.97 | 3.40 | 3 mOD/min | mitotic spindle formation in live-cell imaging [3]: did not form the spindle
